The NIST ThermoML archive (doi:10.1021/je300827f)
Numbers after ± are expanded uncertainties.

Assay: xn = mol fraction of the nth substance listed
Details: 101 kPa, Liquid; for viscosity: Capillary tube (Ostwald / Ubbelohde) method; for mass density: Vibrating tube method

`OCCOCCO` [diethylene glycol] + CCCC(C)O showed a viscosity (298.15 K, x1 = 0.0811) of 3.85 ± 0.16 mPa·s, a viscosity (298.15 K, x1 = 0.1598) of 4.44 ± 0.18 mPa·s and a viscosity (298.15 K, x1 = 0.2399) of 5.12 ± 0.21 mPa·s. The viscosity (298.15 K, x1 = 0.3501) was 6.37 ± 0.26 mPa·s, the viscosity (298.15 K, x1 = 0.4398) was 7.79 ± 0.32 mPa·s and the viscosity (298.15 K, x1 = 0.5599) was 10.37 ± 0.42 mPa·s. The viscosity (298.15 K, x1 = 0.6501) was 12.9 ± 0.52 mPa·s, the viscosity (298.15 K, x1 = 0.7399) was 15.92 ± 0.65 mPa·s and the viscosity (298.15 K, x1 = 0.8499) was 20.26 ± 0.82 mPa·s. For the same compound, the viscosity (298.15 K, x1 = 0.9399) was 24.28 ± 0.98 mPa·s, the viscosity (298.15 K, x1 = 1) was 27.14 ± 1.1 mPa·s and the mass density (298.15 K, x1 = 0.0811) was 827.8 ± 0.2 kg/m3. For the same compound, the mass density (298.15 K, x1 = 0.1598) was 849.9 ± 0.2 kg/m3, the mass density (298.15 K, x1 = 0.2399) was 872.9 ± 0.2 kg/m3 and the mass density (298.15 K, x1 = 0.3501) was 905.1 ± 0.2 kg/m3. It also gave a mass density (298.15 K, x1 = 0.4398) of 931.9 ± 0.2 kg/m3, a mass density (298.15 K, x1 = 0.5599) of 968.7 ± 0.2 kg/m3 and a mass density (298.15 K, x1 = 0.6501) of 997.1 ± 0.2 kg/m3. It also gave a mass density (298.15 K, x1 = 0.7399) of 1025.8 ± 0.3 kg/m3, a mass density (298.15 K, x1 = 0.8499) of 1061.8 ± 0.3 kg/m3 and a mass density (298.15 K, x1 = 0.9399) of 1091.9 ± 0.3 kg/m3. It also gave a mass density (298.15 K, x1 = 1) of 1112.4 ± 0.3 kg/m3, a viscosity (303.15 K, x1 = 0.0811) of 3.17 ± 0.13 mPa·s and a viscosity (303.15 K, x1 = 0.1598) of 3.55 ± 0.14 mPa·s. The viscosity (303.15 K, x1 = 0.2399) was 4.05 ± 0.16 mPa·s, the viscosity (303.15 K, x1 = 0.3501) was 5.03 ± 0.2 mPa·s and the viscosity (303.15 K, x1 = 0.4398) was 6.17 ± 0.25 mPa·s. For the same compound, the viscosity (303.15 K, x1 = 0.5599) was 8.3 ± 0.34 mPa·s, the viscosity (303.15 K, x1 = 0.6501) was 10.35 ± 0.42 mPa·s and the viscosity (303.15 K, x1 = 0.7399) was 12.81 ± 0.52 mPa·s. The viscosity (303.15 K, x1 = 0.8499) was 16.33 ± 0.66 mPa·s, the viscosity (303.15 K, x1 = 0.9399) was 19.56 ± 0.79 mPa·s and the viscosity (303.15 K, x1 = 1) was 21.87 ± 0.89 mPa·s. It also gave a mass density (303.15 K, x1 = 0.0811) of 823.5 ± 0.2 kg/m3, a mass density (303.15 K, x1 = 0.1598) of 845.5 ± 0.2 kg/m3 and a mass density (303.15 K, x1 = 0.2399) of 868.4 ± 0.2 kg/m3. The mass density (303.15 K, x1 = 0.3501) was 900.6 ± 0.2 kg/m3, the mass density (303.15 K, x1 = 0.4398) was 927.5 ± 0.2 kg/m3 and the mass density (303.15 K, x1 = 0.5599) was 964.2 ± 0.2 kg/m3. For the same compound, the mass density (303.15 K, x1 = 0.6501) was 992.8 ± 0.2 kg/m3, the mass density (303.15 K, x1 = 0.7399) was 1021.7 ± 0.3 kg/m3 and the mass density (303.15 K, x1 = 0.8499) was 1058.1 ± 0.3 kg/m3. It also gave a mass density (303.15 K, x1 = 0.9399) of 1088.3 ± 0.3 kg/m3, a mass density (303.15 K, x1 = 1) of 1109.1 ± 0.3 kg/m3 and a viscosity (308.15 K, x1 = 0.0811) of 2.84 ± 0.12 mPa·s. For the same compound, the viscosity (308.15 K, x1 = 0.1598) was 3.29 ± 0.13 mPa·s, the viscosity (308.15 K, x1 = 0.2399) was 3.79 ± 0.15 mPa·s and the viscosity (308.15 K, x1 = 0.3501) was 4.58 ± 0.19 mPa·s. For the same compound, the viscosity (308.15 K, x1 = 0.4398) was 5.42 ± 0.22 mPa·s, the viscosity (308.15 K, x1 = 0.5599) was 6.9 ± 0.28 mPa·s and the viscosity (308.15 K, x1 = 0.6501) was 8.33 ± 0.34 mPa·s. For the same compound, the viscosity (308.15 K, x1 = 0.7399) was 10.08 ± 0.41 mPa·s, the viscosity (308.15 K, x1 = 0.8499) was 12.72 ± 0.52 mPa·s and the viscosity (308.15 K, x1 = 0.9399) was 15.31 ± 0.62 mPa·s. The viscosity (308.15 K, x1 = 1) was 17.26 ± 0.7 mPa·s, the mass density (308.15 K, x1 = 0.0811) was 818.9 ± 0.2 kg/m3 and the mass density (308.15 K, x1 = 0.1598) was 840.8 ± 0.2 kg/m3. For the same compound, the mass density (308.15 K, x1 = 0.2399) was 863.5 ± 0.2 kg/m3, the mass density (308.15 K, x1 = 0.3501) was 895.7 ± 0.2 kg/m3 and the mass density (308.15 K, x1 = 0.4398) was 922.6 ± 0.2 kg/m3. The mass density (308.15 K, x1 = 0.5599) was 959.5 ± 0.2 kg/m3, the mass density (308.15 K, x1 = 0.6501) was 988.1 ± 0.2 kg/m3 and the mass density (308.15 K, x1 = 0.7399) was 1017.4 ± 0.3 kg/m3. For the same compound, the mass density (308.15 K, x1 = 0.8499) was 1053.9 ± 0.3 kg/m3, the mass density (308.15 K, x1 = 0.9399) was 1084.7 ± 0.3 kg/m3 and the mass density (308.15 K, x1 = 1) was 1105.6 ± 0.3 kg/m3. It also gave a viscosity (313.15 K, x1 = 0.0811) of 2.47 ± 0.1 mPa·s, a viscosity (313.15 K, x1 = 0.1598) of 2.93 ± 0.12 mPa·s and a viscosity (313.15 K, x1 = 0.2399) of 3.44 ± 0.14 mPa·s. It also gave a viscosity (313.15 K, x1 = 0.3501) of 4.26 ± 0.17 mPa·s, a viscosity (313.15 K, x1 = 0.4398) of 5.08 ± 0.21 mPa·s and a viscosity (313.15 K, x1 = 0.5599) of 6.46 ± 0.26 mPa·s. It also gave a viscosity (313.15 K, x1 = 0.6501) of 7.74 ± 0.31 mPa·s, a viscosity (313.15 K, x1 = 0.7399) of 9.22 ± 0.37 mPa·s and a viscosity (313.15 K, x1 = 0.8499) of 11.36 ± 0.46 mPa·s. For the same compound, the viscosity (313.15 K, x1 = 0.9399) was 13.35 ± 0.54 mPa·s, the viscosity (313.15 K, x1 = 1) was 14.81 ± 0.6 mPa·s and the mass density (313.15 K, x1 = 0.0811) was 814.6 ± 0.2 kg/m3. The mass density (313.15 K, x1 = 0.1598) was 836.5 ± 0.2 kg/m3, the mass density (313.15 K, x1 = 0.2399) was 859.2 ± 0.2 kg/m3 and the mass density (313.15 K, x1 = 0.3501) was 891.3 ± 0.2 kg/m3. For the same compound, the mass density (313.15 K, x1 = 0.4398) was 918.2 ± 0.2 kg/m3, the mass density (313.15 K, x1 = 0.5599) was 955.2 ± 0.2 kg/m3 and the mass density (313.15 K, x1 = 0.6501) was 983.9 ± 0.2 kg/m3. The mass density (313.15 K, x1 = 0.7399) was 1013.1 ± 0.3 kg/m3, the mass density (313.15 K, x1 = 0.8499) was 1050 ± 0.3 kg/m3 and the mass density (313.15 K, x1 = 0.9399) was 1081.1 ± 0.3 kg/m3. It also gave a mass density (313.15 K, x1 = 1) of 1102.3 ± 0.3 kg/m3.
